Data taken from BindingDB's records for patent US20250019357 (Tactogen, 2025).

Assays:
[1] = target: Sodium-dependent serotonin transporter (Homo sapiens, UniProt P31645); test: Human Serotonin Transporter (SERT, SLC6A4) Functional Antagonist Uptake Assay
Protocol: (§1) Benzofuran derivatives were evaluated for inhibiting the human 5-HT transporter (hSERT) as expressed in CHO cells using an antagonist radioligand assay (Tatsumi, M. et al. (1999), Eur. J. Pharmacol., 368: 277-283).

[2] = target: 5-hydroxytryptamine receptor 1B (Homo sapiens, UniProt P28222); test: 5-HT1BR cAMP Secondary Messenger Agonist Assay
5-hydroxytryptamine receptor 1B, sequence (P28222 whole entry, the tested form may be a part): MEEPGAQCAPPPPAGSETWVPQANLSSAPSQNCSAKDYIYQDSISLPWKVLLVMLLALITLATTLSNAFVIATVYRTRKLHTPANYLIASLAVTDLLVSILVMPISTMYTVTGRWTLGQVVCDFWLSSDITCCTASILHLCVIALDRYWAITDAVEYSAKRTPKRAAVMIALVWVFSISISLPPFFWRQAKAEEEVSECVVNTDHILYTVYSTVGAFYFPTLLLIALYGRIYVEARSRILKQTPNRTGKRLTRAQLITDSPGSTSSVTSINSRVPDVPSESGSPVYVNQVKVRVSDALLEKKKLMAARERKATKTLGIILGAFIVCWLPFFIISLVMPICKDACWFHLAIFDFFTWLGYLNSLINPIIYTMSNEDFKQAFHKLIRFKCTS
Text: The 5-HT1BR cAMP secondary messenger agonist assay used a panel of CHO-K1 cell lines stably expressing non-tagged GPCRs that endogenously signal through cAMP. Hit Hunter cAMP assays monitored the activation of a GPCR via Gi and Gs secondary messenger signaling in a homogenous, non-imaging assay format using DiscoverX Enzyme Fragment Complementation (EFC) with β-galactosidase as the functional endpoint.

[3] = Human Serotonin Transporter (SERT, SLC6A4) Functional Antagonist Uptake Assay
Protocol: as §1

Sodium-dependent serotonin transporter, sequence (P31645 whole entry): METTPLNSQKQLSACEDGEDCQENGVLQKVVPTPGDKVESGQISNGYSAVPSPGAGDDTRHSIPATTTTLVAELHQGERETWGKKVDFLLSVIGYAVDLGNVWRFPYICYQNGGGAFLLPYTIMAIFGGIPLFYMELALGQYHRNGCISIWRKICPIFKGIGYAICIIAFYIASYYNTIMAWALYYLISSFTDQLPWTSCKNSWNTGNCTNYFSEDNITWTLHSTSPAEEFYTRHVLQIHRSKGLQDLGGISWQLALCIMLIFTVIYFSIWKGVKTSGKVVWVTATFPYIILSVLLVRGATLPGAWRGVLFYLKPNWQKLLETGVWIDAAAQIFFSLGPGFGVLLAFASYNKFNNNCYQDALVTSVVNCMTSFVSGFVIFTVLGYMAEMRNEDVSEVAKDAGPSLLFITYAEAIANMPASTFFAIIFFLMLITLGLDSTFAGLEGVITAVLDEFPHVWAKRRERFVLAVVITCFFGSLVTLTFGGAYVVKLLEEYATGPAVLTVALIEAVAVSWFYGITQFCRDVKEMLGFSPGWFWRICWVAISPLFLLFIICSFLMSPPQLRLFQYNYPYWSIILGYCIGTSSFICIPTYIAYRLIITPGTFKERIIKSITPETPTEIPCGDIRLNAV

CC[C@H](Cc1ccc2ccoc2c1)NC [US20250019357, Compound R-(-)-6-MBPB]
IC50 [1]: 5700 nM
Ki [1]: 2600 nM

CNC(C)C(=O)c1ccc2occc2c1 (single isomer, unassigned; form 2) [US20250019357, Compound (+)-BK-5MAPB]
EC50 [2]: 3070 nM

CNC(C)C(=O)c1ccc2occc2c1 (single isomer, unassigned; form 1) [US20250019357, Compound (-)-BK-5MAPB]
EC50 [2]: 77.7 nM

CNC(C)C(=O)c1ccc2ccoc2c1 (single isomer, unassigned; form 2) [US20250019357, Compound (+)-BK-6MAPB]
EC50 [2]: > 10000 nM

CC[C@H](Cc1ccc2ccoc2c1)NC [US20250019357, Compound R-6-MBPB]
EC50 [3]: 172 nM

CCC(NC)C(=O)c1ccc2occc2c1 (single isomer, unassigned; form 2) [US20250019357, Compound (-)-BK-5MBPB]
EC50 [2]: 6610 nM

CC[C@@H](Cc1ccc2ccoc2c1)NC [US20250019357, Compound S-(+)-6-MBPB]
IC50 [1]: 2700 nM
Ki [1]: 1200 nM

CCC(NC)C(=O)c1ccc2occc2c1 (single isomer, unassigned; form 1) [US20250019357, Compound (+)-BK-5MBPB]
EC50 [2]: > 30000 nM

CC[C@@H](Cc1ccc2ccoc2c1)NC [US20250019357, Compound S-6-MBPB]
EC50 [3]: 54.1 nM
